We go through 24 compounds from US20250042853A1, “BICYCLIC COMPOUND AND APPLICATION THEREOF” (BETTA PHARMACEUTICALS CO., LTD, priority 2021, published 2025).

SMILES strings stand for the structures.

What is called IC50 is the point on the concentration scale where inhibition reaches its midpoint. Higher therefore signals weaker potency in that assay.

In one assay the test system is 786-O-HIF2α-Luc cells. Kind of assay: Luciferase assay (HIF2α reporter gene cells). The format is cell-based. To be noted: 18-20 h, luminescence. The procedure:
The luciferase LUC gene was stably transfected into 786-0 cells (purchased from ATCC) using Lipofectamine 3000 transfection reagent (purchased from Invitrogen) to construct HIF2α reporter gene cells (786-O-HIF2α-Luc cells). The experiment was performed when 786-O-HIF2α-Luc cells were in the logarithmic growth phase, the culture medium (RPMI MEDIUM 1640, purchased from Invitrogen) was discarded, and the cells were rinsed three times with PBS; trypsin (TrypLE, purchased from Invitrogen) was added to digest the cells, and the digestion was terminated with culture medium, 10% fetal bovine serum, 1% penicillin, and streptomycin. The cells were collected by centrifugation, and washed twice with PBS to remove phenol red in the culture medium. The cells were resuspended to an appropriate concentration. The cell density and viability were measured, to ensure that the cells with a viability of at least 90% were used in the assay.
The compounds at a gradient concentration were transferred into 384 wells using Echo550 (non-contact acoustic pipetting system, purchased from Labcyte), 25 nL/well. The cells were seeded into 384-well plates, with 4500 cells/well and 25 μL of culture medium, and the final concentrations of the compounds were 10000 nM, 3333 nM, 1111 nM, 370 nM, 123 nM, 41.1 nM, 13.7 nM, 4.6 nM, 1.5 nM, and 0.5 nM, respectively. The cells were cultured for 18-20 h under conditions of 37° C. and 5% CO2. Steady-Glo™ luciferase assay system (purchased from Promega) was added to a 384-well plate, 25 μL/well. Luminescence values were detected using Envision. The inhibition rate % was calculated based on the RLU (Record Luminescence) signal value of each well, and then the IC50 values of the corresponding compounds were calculated by fitting using Graphpad 8.0.
The IC50 data of the exemplary examples are provided in Table 2, where A stands for IC50≤0.1 μM; B stands for 0.1 μM<IC50≤0.5 μM; and C stands for IC50>0.5 μM.
On the technique in general: In a reporter assay the amount or activity of a reporter protein is the signal.

A further assay concerns VEGFA. Kind of assay: VEGFA ELISA assay (IC50). The following applies: Homo sapiens, 786-0, 786-O cells, 24 h, VEGFA in culture supernatant by ELISA. It counts as cell-based. The procedure: 786-O cells in the logarithmic growth phase were inoculated into a 96-well plate at a cell concentration of 65,000 cells per ml of culture liquid, 180 μL per well. The compounds were diluted to the corresponding concentrations, and 20 μL of compound solutions of various concentrations were added to the corresponding cell wells, so that the final concentrations of the compounds were 1.5 nM, 4.6 nM, 13.7 nM, 41.2 nM, 123.5 nM, 370.4 nM, 1111.1 nM, 3333.3 nM, and 10000 nM, respectively. After culturing for 24 h, the cell culture supernatant was collected and the VEGFA concentration was determined using an ELISA kit (purchased from Abeam). Finally, the reaction was terminated and the absorbance value of each well was measured at a wavelength of 450 nm using an ELISA reader. The IC50 values were calculated by GraphPadPrism. CellTiter-Glo reagent was used to measure cell viability.

Take `O=S(=O)(c1cn(-c2ccc(F)c(C(F)F)c2)c2c1[C@H](O)C(F)(F)CC2)C(F)F` [Example 6, (S)-1-(3-(difluoromethyl)-4-fluorophenyl)-3-((difluoromethyl)sulfonyl)-5,5-difluoro-4,5,6,7-tetrahydro-1H-indol-4-ol]: the IC50 in the assay on 786-O-HIF2α-Luc cells is 38 nM; with VEGFA, 11 nM.

As to `N#Cc1cc(-n2cc(S(=O)(=O)CF)c3c2CCC(F)(F)[C@H]3O)ccc1F` [Example 11, (S)-5-(5,5-difluoro-3-((fluoromethyl)sulfonyl)-4-hydroxyl-4,5,6,7-tetrahydro-1H-indol-1-yl)-2-fluorobenzonitrile], the IC50 with 786-O-HIF2α-Luc cells (class symbols) was 100 to 500 nM; in the assay on VEGFA it was 27 nM.

For `O=S(=O)(c1cn(-c2ccc(F)c(C(F)F)c2)c2c1[C@H](O)C(F)(F)CC2)C(F)(F)F` [Example 12, (S)-1-(3-(difluoromethyl)-4-fluorophenyl)-5,5-difluoro-3-((trifluoromethyl)sulfonyl)-4,5,6,7-tetrahydro-1H-indol-4-ol], the IC50 with 786-O-HIF2α-Luc cells (class symbols) is at most 100 nM; in the assay with VEGFA it was 10 nM.

As for `O=S(=O)(CF)c1cn(-c2ccc(F)c(C(F)F)c2)c2c1[C@H](O)C(F)(F)CC2` [Example 14, (S)-1-(3-(difluoromethyl)-4-fluorophenyl)-5,5-difluoro-3-((fluoromethyl)sulfonyl)-4,5,6,7-tetrahydro-1H-indol-4-ol], the IC50 in the assay with 786-O-HIF2α-Luc cells was 54 nM; in the assay on VEGFA, 40 nM.

Regarding `O=S(=O)(c1cn(-c2ccc(F)c(C(F)(F)F)c2)c2c1[C@H](O)C(F)(F)CC2)C(F)(F)F` [Example 23, (S)-5,5-difluoro-1-(4-fluoro-3-(trifluoromethyl)phenyl)-3-((trifluoromethyl)sulfonyl)-4,5,6,7-tetrahydro-1H-indol-4-ol], the IC50 in the assay on 786-O-HIF2α-Luc cells amounted to 40 nM; with VEGFA it was 11 nM.

With `O=S(=O)(c1cn(-c2ccc(F)c(C(F)F)c2)c2c1[C@H](O)CCC2)C(F)F` [Example 32, (R)-1-(3-(difluoromethyl)-4-fluorophenyl)-3-((difluoromethyl)sulfonyl)-4,5,6,7-tetrahydro-1H-indol-4-ol], the half-maximal inhibitory concentration (IC50) with 786-O-HIF2α-Luc cells (class symbols) is 100 to 500 nM; in the assay with VEGFA, 62 nM.

`N#Cc1ccc(-n2cc(S(=O)(=O)C(F)(F)F)c3c2CCC(F)(F)[C@H]3O)cc1C#N` [Example 42, (S)-4-(5,5-difluoro-4-hydroxyl-3-((trifluoromethyl)sulfonyl)-4,5,6,7-tetrahydro-1H-indol-1-yl)phthalonitrile] gave an IC50 in the assay on VEGFA of 74 nM.

`N#Cc1ccc(-n2cc(S(=O)(=O)C(F)F)c3c2CCC(F)(F)[C@H]3O)cc1C(F)F` [Example 43, (S)-2-(difluoromethyl)-4-(3-((difluoromethyl)sulfonyl)-5,5-difluoro-4-hydroxyl-4,5,6,7-tetrahydro-1H-indol-1-yl)benzonitrile] registered an IC50 with VEGFA (class symbols) of at most 500 nM.

In the case of `N#Cc1ccc(-n2cc(S(=O)(=O)CF)c3c2CCC(F)(F)[C@H]3O)cc1C(F)F` [Example 44, (S)-4-(5,5-difluoro-3-((fluoromethyl)sulfonyl)-4-hydroxyl-4,5,6,7-tetrahydro-1H-indol-1-yl)-2-(difluoromethyl) benzonitrile], the IC50 with VEGFA (class symbols) is at most 500 nM.

Turning to `N#Cc1ccc(-n2cc(S(=O)(=O)CF)c3c2CCC(F)(F)[C@H]3O)cc1C#N` [Example 45, (S)-4-(5,5-difluoro-3-((fluoromethyl)sulfonyl)-4-hydroxyl-4,5,6,7-tetrahydro-1H-indol-1-yl)phthalonitrile], in the assay on VEGFA (class symbols), the IC50 was at most 500 nM.

As to `N#Cc1ccc(-n2cc(C(F)(F)C(F)(F)F)c3c2CCC(F)(F)[C@H]3O)cc1C#N` [Example 46, (S)-4-(5,5-difluoro-4-hydroxyl-3-(perfluoroethyl)-4,5,6,7-tetrahydro-1H-indol-1-yl)phthalonitrile], in the assay with VEGFA (class symbols), the IC50 was at most 500 nM.

In the assay with VEGFA, `N#CC(F)S(=O)(=O)c1cn(-c2ccc(F)c(C(F)F)c2)c2c1[C@H](O)C(F)(F)CC2` (stereo partly drawn) [Example 47, 2-(((S)-1-(3-(difluoromethyl)-4-fluorophenyl)-5,5-difluoro-4-hydroxyl-4,5,6,7-tetrahydro-1H-indol-3-yl)sulfonyl)-2-fluoroacetonitrile] returned an IC50 of 8 nM.

Turning to `CCOC(=O)C(F)(F)c1cn(-c2ccc(F)c(C(F)F)c2)c2c1[C@H](O)C(F)(F)CC2` [Example 48, ethyl (S)-2-(1-(3-(difluoromethyl)-4-fluorophenyl)-5,5-difluoro-4-hydroxyl-4,5,6,7-tetrahydro-1H-indol-3-yl)-2,2-difluoroacetate], in the assay on VEGFA, half-maximal inhibition (IC50) required 1620 nM.

As for `N#CC(F)(F)c1cn(-c2ccc(F)c(C(F)F)c2)c2c1[C@H](O)C(F)(F)CC2` [Example 49, (S)-2-(1-(3-(difluoromethyl)-4-fluorophenyl)-5,5-difluoro-4-hydroxyl-4,5,6,7-tetrahydro-1H-indol-3-yl)-2,2-difluoroacetonitrile], the midpoint of inhibition in the assay on VEGFA, the IC50, lay at 99 nM.

Turning to `O[C@H]1c2c(-c3nccs3)cn(-c3ccc(F)c(C(F)F)c3)c2CCC1(F)F` [Example 51, (S)-1-(3-(difluoromethyl)-4-fluorophenyl)-5,5-difluoro-3-(thiazol-2-yl)-4,5,6,7-tetrahydro-1H-indol-4-ol], half-maximal inhibition with VEGFA (IC50) was put at 1250 nM.

`CC(C#N)S(=O)(=O)c1cn(-c2ccc(F)c(C(F)F)c2)c2c1[C@H](O)C(F)(F)CC2` (stereo partly drawn) [Example 57, 2-(((S)-1-(3-(difluoromethyl)-4-fluorophenyl)-5,5-difluoro-4-hydroxyl-4,5,6,7-tetrahydro-1H-indol-3-yl)sulfonyl) propanenitrile] had an IC50 with VEGFA (class symbols) of at most 500 nM.

As to `N#CC1(S(=O)(=O)c2cn(-c3ccc(F)c(C(F)F)c3)c3c2[C@H](O)C(F)(F)CC3)CC1` [Example 58, (S)-1-((1-(3-(difluoromethyl)-4-fluorophenyl)-5,5-difluoro-4-hydroxyl-4,5,6,7-tetrahydro-1H-indol-3-yl)sulfonyl)cyclopropane-1-nitrile], in the assay with VEGFA, the midpoint of inhibition, the IC50, lay at 639 nM.

Compound `O=S(=O)(CF)c1cn(-c2ccc(F)c(C(F)F)c2)c2c1[C@@H](O)C(F)(F)CC2` [Example 61, (R)-1-(3-(difluoromethyl)-4-fluorophenyl)-5,5-difluoro-3-((fluoromethyl)sulfonyl)-4,5,6,7-tetrahydro-1H-indol-4-ol] came in with an IC50 in the assay on VEGFA (class symbols) of at most 500 nM.

On to `NC(=O)c1cn(-c2ccc(F)c(C(F)F)c2)c2c1[C@H](O)C(F)(F)CC2` [Example 62, (S)-1-(3-(difluoromethyl)-4-fluorophenyl)-5,5-difluoro-4-hydroxyl-4,5,6,7-tetrahydro-1H-indole-3-carboxamide], for which, in the assay with VEGFA (class symbols), the concentration for half-maximal inhibition (IC50) was at most 500 nM.

With `O=S(=O)(c1cn(-c2ccc(F)c(C(F)F)c2)c2c1[C@H](O)[C@H](F)CC2)C(F)F` [Example 63, (4S,5R)-1-(3-(difluoromethyl)-4-fluorophenyl)-3-((difluoromethyl)sulfonyl)-5-fluoro-4,5,6,7-tetrahydro-1H-indol-4-ol], the midpoint of inhibition in the assay on VEGFA, the IC50, lay at 50 nM.

For `O=S(=O)(c1cn(-c2ccc(F)c(C(F)F)c2)c2c1[C@H](O)[C@@H](F)CC2)C(F)F` [Example 64, (4S,5S)-1-(3-(difluoromethyl)-4-fluorophenyl)-3-((difluoromethyl)sulfonyl)-5-fluoro-4,5,6,7-tetrahydro-1H-indol-4-ol], in the assay on VEGFA, it took 33 nM to reach half-maximal inhibition (IC50).

As for `N#Cc1ccc(-n2cc(S(=O)(=O)C(F)(F)F)c3c2CCC[C@H]3O)cc1C(F)F` [Example 65, (R)-2-(difluoromethyl)-4-(4-hydroxyl-3-((trifluoromethyl)sulfonyl)-4,5,6,7-tetrahydro-1H-indol-1-yl)benzonitrile], the IC50 in the assay on VEGFA was found to be 30 nM.

Turning to `O[C@H]1c2c(C(F)(F)F)cn(-c3ccc(F)cc3F)c2CCC1(F)F` [Example 72, (S)-1-(2,4-difluorophenyl)-5,5-difluoro-3-(trifluoromethyl)-4,5,6,7-tetrahydro-1H-indol-4-ol], the IC50 in the assay on VEGFA (class symbols) was in the range of 500 to 1500 nM.

Compound `N#Cc1cc(-n2c(F)c(-c3cccs3)c3c2CCC(F)(F)C3O)ccc1F` (stereo not drawn) [Example 106, 2-fluoro-5-(2,5,5-trifluoro-4-hydroxyl-3-(thien-2-yl)-4,5,6,7-tetrahydro-1H-indol-1-yl)benzonitrile] displayed an IC50 in the assay with VEGFA of 15 nM.
